From patent publication US20060069132A1, “Azolecarboxamide herbicides” (priority 2004, published 2006)
Where two headings read alike, the source gives them in different places.

What was measured:
ducksalad = assay: Test B flooded paddy test; format: in vivo, Heteranthera limosa; details: Heteranthera limosa, 336 h, 1000 g ai/ha, scale 0 to 100 (0 no effect, 100 complete control), read-out: Ducksalad plant response rating
Summary of the method: (§1)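 Treated at 2-leaf (paddy) or 1–4-leaf, 2–18 cm (postemergence); greenhouse 13–15 d; visual score vs control, 0 none to 100 complete control; dash = not tested.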

cocklebur = assay: Test B pre-/postemergence herbicide test; format: in vivo, Xanthium strumarium; details: for pest or weed control at 500 g/ha: 500 g ai/ha
Summary of the method: (§2)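 Herbicidal effect was judged by eye on a 0–100 scale after plants stood 13 to 15 days in the greenhouse following pre- or postemergence treatment with surfactant-containing formulations.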

wheat = assay: Test B postemergence herbicide test; format: in vivo, Triticum aestivum; details: Triticum aestivum, post-emergence, 336 h, read-out: Wheat plant response rating
Summary of the method: as §1

barnyardgrass [1] = assay: Test B flooded paddy test; format: in vivo, Echinochloa crus-galli; details: Echinochloa crus-galli, 336 h, 1000 g ai/ha, scale 0 to 100 (0 no effect, 100 complete control), read-out: Barnyardgrass plant response rating
Summary of the method: as §1

Surinam grass = assay: Test B pre-/postemergence herbicide test; format: in vivo, Urochloa decumbens; details: for pest or weed control at 500 g/ha: 500 g ai/ha
Summary of the method: (§3)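 Evaluation is visual, comparing treated with control plants on a scale where 0 means no effect and 100 means full control. Treatments were preemergence, or postemergence on seedlings 2–18 cm tall, and held 13–15 days in the greenhouse.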

velvetleaf = assay: Test B pre-/postemergence herbicide test; format: in vivo, Abutilon theophrasti
Summary of the method: as §3

morningglory = assay: Test B pre-/postemergence herbicide test; format: in vivo, Ipomoea coccinea; details: for pest or weed control at 500 g/ha: 500 g ai/ha
Summary of the method: as §2

giant foxtail = assay: Test B pre-/postemergence herbicide test; format: in vivo, Setaria faberi; details: for pest or weed control at 500 g/ha: 500 g ai/ha
Summary of the method: as §3

[2] = test system: small flower umbrella sedge; assay: Test B flooded paddy test; format: in vivo, Cyperus difformis; details: Cyperus difformis, 336 h, 1000 g ai/ha, scale 0 to 100 (0 no effect, 100 complete control), read-out: Sedge, Umbrella plant response rating
Summary of the method: as §1

rice = assay: Test B flooded paddy test; format: in vivo, Oryza sativa; details: Oryza sativa, 336 h, 1000 g ai/ha, scale 0 to 100 (0 no effect, 100 complete control), read-out: Rice plant response rating
Summary of the method: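 Each value is a visual 0–100 response rating taken against controls 13 to 15 days after treatment in the greenhouse. Plants received formulated chemical postemergence at the 1- to 4-leaf stage or, in flooded paddy, at the 2-leaf stage.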

barnyardgrass [3] = assay: Test B pre-/postemergence herbicide test; format: in vivo, Echinochloa crus-galli; details: for pest or weed control at 500 g/ha: 500 g ai/ha
Summary of the method: as §2

large crabgrass = assay: Test B pre-/postemergence herbicide test; format: in vivo, Digitaria sanguinalis; details: for pest or weed control at 500 g/ha: 500 g ai/ha
Summary of the method: as §3

corn = assay: Test B pre-/postemergence herbicide test; format: in vivo, Zea mays
Summary of the method: as §3

blackgrass = assay: Test B postemergence herbicide test; format: in vivo, Alopecurus myosuroides; details: Alopecurus myosuroides, post-emergence, 336 h, read-out: Blackgrass plant response rating
Summary of the method: as §1

lambsquarters = assay: Test B pre-/postemergence herbicide test; format: in vivo, Chenopodium album; details: for pest or weed control at 500 g/ha: 500 g ai/ha
Summary of the method: as §3

[4] = 125 g ai/ha, 0 is no effect, 100 is complete control, preemergence
[5] = 125 g ai/ha, visual rating, scale 0 (no effect) to 100 (complete control)
[6] = postemergence, 500 g ai/ha, scale 0 to 100, 0 is no effect, 100 is complete control

With `CCNC(=O)c1ccc(F)c(NC(=O)C2CN(C(C)(C)C)N=C2CC)c1` (stereo not shown) [Compound 336, 1-(1,1-dimethylethyl)-3-ethyl-N-[5-[(ethylamino)carbonyl]-2-fluorophenyl]-4,5-dihydro-1H-pyrazole-4-carboxamide] the pest or weed control at 1000 g/ha (ducksalad) was 90%, the “Plant response rating (0 to 100 scale), Cocklebur” value (cocklebur; [4]) was 10 and the pest or weed control at 125 g/ha (cocklebur; Xanthium strumarium, post-emergence, 125 g ai/ha, visual rating, scale 0 (no effect) to 100 (complete control), read-out: Cocklebur plant response rating) was 0%. It also gave a pest or weed control at 500 g/ha (cocklebur; Xanthium strumarium, post-emergence, postemergence, scale 0 to 100, 0 is no effect, 100 is complete control, read-out: Cocklebur plant response rating) of 50%, a pest or weed control at 500 g/ha (cocklebur; Xanthium strumarium, pre-emergence, visual rating, 0 = no effect, 100 = complete control, read-out: Plant response rating, Cocklebur) of 40% and a plant injury at 125 g/ha (wheat; [5]) of 0%. For the same compound, the plant injury at 500 g/ha (wheat; [6]) was 10%, the pest or weed control at 1000 g/ha (barnyardgrass [1]) was 90% and the “Plant response rating (0 to 100 scale), Surinam Grass” value (Surinam grass; [4]) was 90. The pest or weed control at 125 g/ha (Surinam grass; Urochloa decumbens, post-emergence, 125 g ai/ha, visual rating, scale 0 (no effect) to 100 (complete control), read-out: Surinam Grass plant response rating) was 20%, the pest or weed control at 500 g/ha (Surinam grass; Urochloa decumbens, post-emergence, postemergence, scale 0 to 100, 0 is no effect, 100 is complete control, read-out: Surinam Grass plant response rating) was 20% and the pest or weed control at 500 g/ha (Surinam grass; Urochloa decumbens, pre-emergence, visual rating, 0 = no effect, 100 = complete control, read-out: Plant response rating, Surinam Grass) was 100%. The “Plant response rating (0 to 100 scale), Velvetleaf” value (velvetleaf; [4]) was 30, the pest or weed control at 125 g/ha (velvetleaf; Abutilon theophrasti, post-emergence, 336 h, 125 g ai/ha, visual rating, scale 0 (no effect) to 100 (complete control), read-out: Velvetleaf plant response rating) was 20% and the pest or weed control at 500 g/ha (velvetleaf; Abutilon theophrasti, post-emergence, 336 h, postemergence, 500 g ai/ha, scale 0 to 100, 0 is no effect, 100 is complete control, read-out: Velvetleaf plant response rating) was 30%. The “Plant response rating (0 to 100 scale), Morningglory” value (morningglory; [4]) was 20, the pest or weed control at 125 g/ha (morningglory; Ipomoea, post-emergence, 336 h, 125 g ai/ha, visual rating, scale 0 (no effect) to 100 (complete control), read-out: Morningglory plant response rating) was 40% and the pest or weed control at 500 g/ha (morningglory; Ipomoea, post-emergence, 336 h, postemergence, scale 0 to 100, 0 is no effect, 100 is complete control, read-out: Morningglory plant response rating) was 70%. For the same compound, the pest or weed control at 500 g/ha (morningglory; Ipomoea, pre-emergence, 336 h, visual rating, 0 = no effect, 100 = complete control, read-out: Plant response rating, Morningglory) was 70%, the “Plant response rating (0 to 100 scale), Foxtail, Giant” value (giant foxtail; [4]) was 60 and the pest or weed control at 125 g/ha (giant foxtail; Setaria faberi, post-emergence, 336 h, 125 g ai/ha, visual rating, scale 0 (no effect) to 100 (complete control), read-out: Foxtail, Giant plant response rating) was 20%. It also gave a pest or weed control at 500 g/ha (giant foxtail; Setaria faberi, post-emergence, 336 h, postemergence, scale 0 to 100, 0 is no effect, 100 is complete control, read-out: Foxtail, Giant plant response rating) of 40%, a pest or weed control at 500 g/ha (giant foxtail; Setaria faberi, pre-emergence, 336 h, visual rating, 0 = no effect, 100 = complete control, read-out: Plant response rating, Foxtail, Giant) of 100% and a pest or weed control at 1000 g/ha [2] of 80%. The plant injury at 1000 g/ha (rice) was 80%, the “Plant response rating (0 to 100 scale), Barnyardgrass” value (barnyardgrass [3]; [4]) was 100 and the pest or weed control at 125 g/ha (barnyardgrass [3]; Echinochloa crus-galli, post-emergence, 125 g ai/ha, visual rating, scale 0 (no effect) to 100 (complete control), read-out: Barnyardgrass plant response rating) was 10%. For the same compound, the pest or weed control at 500 g/ha (barnyardgrass [3]; Echinochloa crus-galli, post-emergence, postemergence, scale 0 to 100, 0 is no effect, 100 is complete control, read-out: Barnyardgrass plant response rating) was 30%, the pest or weed control at 500 g/ha (barnyardgrass [3]; Echinochloa crus-galli, pre-emergence, visual rating, 0 = no effect, 100 = complete control, read-out: Plant response rating, Barnyardgrass) was 100% and the “Plant response rating (0 to 100 scale), Crabgrass, Large” value (large crabgrass; [4]) was 90. It also gave a pest or weed control at 125 g/ha (large crabgrass; Digitaria sanguinalis, post-emergence, 125 g ai/ha, visual rating, scale 0 (no effect) to 100 (complete control), read-out: Crabgrass, Large plant response rating) of 20%, a pest or weed control at 500 g/ha (large crabgrass; Digitaria sanguinalis, post-emergence, postemergence, scale 0 to 100, 0 is no effect, 100 is complete control, read-out: Crabgrass, Large plant response rating) of 50% and a pest or weed control at 500 g/ha (large crabgrass; Digitaria sanguinalis, pre-emergence, visual rating, 0 = no effect, 100 = complete control, read-out: Plant response rating, Crabgrass, Large) of 100%. For the same compound, the “Plant response rating (0 to 100 scale), Corn” value (corn; [4]) was 50, the plant injury at 125 g/ha (corn; Zea mays, post-emergence, 125 g ai/ha, visual rating, scale 0 (no effect) to 100 (complete control), read-out: Corn plant response rating) was 10% and the plant injury at 500 g/ha (corn; Zea mays, post-emergence, postemergence, 500 g ai/ha, scale 0 to 100, 0 is no effect, 100 is complete control, read-out: Corn plant response rating) was 20%. For the same compound, the Corn plant response rating (crop injury, 0 = no effect, 100 = complete kill) at 500 g/ha (corn; Zea mays, pre-emergence, 500 g ai/ha, visual rating, 0 = no effect, 100 = complete control) was 100%, the pest or weed control at 125 g/ha (blackgrass; [5]) was 10% and the pest or weed control at 500 g/ha (blackgrass; [6]) was 20%. The “Plant response rating (0 to 100 scale), Lambsquarters” value (lambsquarters; [4]) was 90, the pest or weed control at 125 g/ha (lambsquarters; Chenopodium album, post-emergence, 336 h, 125 g ai/ha, visual rating, scale 0 (no effect) to 100 (complete control), read-out: Lambsquarters plant response rating) was 60% and the pest or weed control at 500 g/ha (lambsquarters; Chenopodium album, post-emergence, 336 h, postemergence, scale 0 to 100, 0 is no effect, 100 is complete control, read-out: Lambsquarters plant response rating) was 90%. For the same compound, the pest or weed control at 500 g/ha (lambsquarters; Chenopodium album, pre-emergence, 336 h, visual rating, 0 = no effect, 100 = complete control, read-out: Plant response rating, Lambsquarters) was 100%.
